# In paper PMC5430895 (Scientific Reports, 2017):
# B1: hOCTN1 (Homo sapiens) (protein)
# chain: MRDYDEVIAFLGEWGPFQRLIFFLLSASIIPNGFNGMSVVFLAGTPEHRCRVPDAANLSSAWRNNSVPLRLRDGREVPHSCSRYRLATIANFSALGLEPGRDVDLGQLEQESCLDGWEFSQDVYLSTVVTEWNLVCEDNWKVPLTTSLFFVGVLLGSFVSGQLSDRFGRKNVLFATMAVQTGFSFLQIFSISWEMFTVLFVIVGMGQISNYVVAFILGTEILGKSVRIIFSTLGVCTFFAVGYMLLPLFAYFIRDWRMLLLALTVPGVLCVPLWWFIPESPRWLISQRRFREAEDIIQKAAKMNNIAVPAVIFDSVEELNPLKQQKAFILDLFRTRNIAIMTIMSLLLWMLTSVGYFALSLDAPNLHGDAYLNCFLSALIEIPAYITAWLLLRTLPRRYIIAAVLFWGGGVLLFIQLVPVDYYFLSIGLVMLGKFGITSAFSMLYVFTAELYPTLVRNMAVGVTSTASRVGSIIAPYFVYLGAYNRMLPYIVMGSLTVLIGILTLFFPESLGMTLPETLEQMQKVKWFRSGKKTRDSMETEENPKVLITAF
# Columns and labels:
# [1] = tested on: saracatinib uptake into RASF; assay: Uptake competition experiments: saracatinib uptake by RASF in presence of transporter substrates; conditions: saracatinib 10 µM
# [2] = substrate: CN1CCN(CCOc2cc(OC3CCOCC3)c3c(Nc4c(Cl)ccc5c4OCO5)ncnc3c2)CC1; assay: cells, lysate or membranes named; conditions: other: hOCTN1-HEK293 cells, 10 min incubation; pH 7.4; 37.0 °C
# Experimental: Twenty-four hours before starting experiments hOCTN1 expression was induced by 1 mg/l doxycycline (Sigma-Aldrich, Steinheim, Germany). Cells were grown at standard conditions. […] Cell number was evaluated with a CASEYTT cell counter (Roche Innovatis, Reutlingen, Germany).
# After incubation, cells were washed with ice-cold PBS and hypoosmotic lysis was induced with 0.1% formic acid. […] The mobile phase consisted of (A) acetonitrile with 0.1% formic acid and (B) 0.1% formic acid and was delivered at 0.3 ml/min in a gradient program. After delivering 100% B for 3 min, a linear gradient to 100% A was applied within 7 min and maintained for 5 min. Thereafter, in order to re-equilibrate the column, a simple isocratic elution step with 100% eluent B was applied for at least 6 min. […] Separation was carried out on an Accucore C18 column equipped with a C18 guard column. The data were acquired by ChromQuest 5.0 chromatography software.
molecule,measurement,setting,value
"C[N+](C)(C)[C@@H](Cc1c[nH]c(=S)[nH]1)C(=O)[O-] [Ergothioneine, L-(+)-ergothioneine]","net accumulation rate of saracatinib, % of the control",[1]; ergothioneine 40 µM (OCTN1 substrate),53%
C[n+]1ccc(-c2ccccc2)cc1.[I-] [MPP^+],effect on saracatinib uptake,[1]; MPP+ 20 µM (inhibitor of hOCT1-3),did not influence saracatinib uptake
B1,Km,[2],42 ± 11 µM
